What was measured:
[1] = Permeability through monolayer of Caco-2 cells; type: in vitro ADME; conditions: human, Caco-2 monolayer; for Papp A→B at 2 h, 10 µM: pH 6.5 upper / pH 7.4 lower, 2 h at 37° C.; for efflux ratio at 2 h, 10 µM: Papp B-A/Papp A-B
Source text: 2) Assessment of permeability through monolayer of Caco-2 cells.
Assessment of permeability through the monolayer of Caco-2 cells allows to evaluate the ability of the candidate compounds to penetrate through biological membranes by active and passive transport.
Caco-2, the cells of the intestinal epithelium, had been cultured in transwell plate inserts with the filters (with pores of 0.4 μm, BD Falcon with High Density) for 21 days, and then the integrity of the monolayer were estimated with Lucifer Yellow (Sigma-Aldrich, USA) by standard protocol. When setting the A→B transfer (“intestinal lumen”—“blood stream” transfer), solutions of test substances were added in a buffer with pH 6.5 (HBSS, 10 mM HEPES, 15 mM glucose solution) with the concentration of 10 μM into the upper chamber; the lower chamber was filled with a buffer with pH 7.4 (HBSS, 10 mM HEPES, 15 mM Glucose, 1% BSA). When setting B→A transfer (“blood stream”—“intestinal lumen” transfer), the upper chamber was filled with the buffer with pH 6.5, and solutions of the test substances were added in the buffer with pH 7.4 at the concentration of 10 μM in the lower chamber. Propranolol was used as a control substance (as it has high permeability).
After incubating for 2 h at 37° C. under 5% CO2, the amounts of test substances were determined in the upper and lower chambers by HPLC using Agilent1200 chromatograph (Agilent, USA) with preliminary protein precipitation with acetonitrile. We used gradient elution (1 mL/min flow rate). We determined the areas of peaks corresponding to the compounds. On the basis of peak areas in the calibration standards we determined the concentration of compound in the initial solution and in the samples from the wells of the upper and lower chambers. Papp, permeability through the cell layer, was calculated using the following formula:
Papp=(C(t)*V)/(C(0)*t*Area), wherein
The value was calculated with the following formula:
efflux=Papp B-A/Papp A-B, wherein • Papp A-B—the volume of permeability in A→B test; • Papp B-A—he volume of permeability in B→A test.

WT EGFR (Wild-Type EGFR) = biological target: T1, WT EGFR (Wild-Type EGFR) (Homo sapiens, UniProt P00533); test: Inhibition of WT EGFR kinase activity (ADP-Glo); type: biochemical
T1 construct: purchased SignalChem
How it was run: (§1)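 Luminescent ADP-Glo readout was used for both wild-type and L858R/T790M EGFR, each run 180 minutes at 37° C. Reactions used a solution of 50 μM ATP with 0.5 mg/mL peptide substrate. Four-parameter logistic curves gave IC50.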

[2] = Enzyme stability in human liver S9 fractions; type: in vitro ADME; conditions: 0.5 mg/mL pooled human liver S9 fractions; 10 μM compound; 37° C.; pH 7.4; read-out: Stability in liver S9 fractions, Clint
How it was run: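 Compound at 10 μM was incubated at 37 °C with 0.5 mg/mL pooled human liver S9, 2 mM β-NAD and 4 mM MgCl2 in 0.1 M sodium phosphate, pH 7.4, then quenched with acetonitrile and analysed chromatographically. T½ and CLint were derived from the slope of log peak area versus time.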

[3] = biological target: T2, DM EGFR (DoubleMutantEGFR, L828R/T790M) (Homo sapiens, UniProt P00533, L858R/T790M); test: Inhibition of DM EGFR kinase activity (ADP-Glo); type: biochemical; conditions: for IC50: inhibition of kinase activity, EGFR DM (L828R/T790M); for SI, IC50(WT)/IC50(DM): selectivity index, kinase EGFR WT vs EGFR DM
T2 construct: purchased SignalChem
How it was run: as §1

[4] = Chemical stability in human blood plasma; type: in vitro ADME; conditions: pooled human blood plasma; 10 μm; 4 hours at 37° C.; substance amount remaining
How it was run: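 Percent of parent remaining was derived by comparing HPLC peak areas at time zero and after 4 h at 37 °C. Test compound was at 10 μM in human plasma pooled from ten donors, and proteins were precipitated with acetonitrile before analysis.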

Row | SMILES | Papp A→B at 2 h, 10 µM [1] [×10⁻⁶ cm/s] | efflux ratio at 2 h, 10 µM [1] | IC50 (WT EGFR (Wild-Type EGFR)) [nM] | Intrinsic clearance in human liver S9 fractions at 10 µM [2] [µL/min/mg] | IC50 [3] [nM] | SI, IC50(WT)/IC50(DM) [3] | Stability in blood plasma, % [4] [%]
1 | C=CC(=O)Nc1cc(Nc2nccc(C(=O)c3ccc(N4CCCCC4)cc3)n2)c(OC)cc1N(C)CCN(C)C [EGFR_3365_90, N-(2-((2-(dimethylamino)ethyl)(methyl)amino)-4-methoxy-5-((4-(4-(piperidin-1-yl)benzoyl)pyrimidin-2-yl)amino)phenyl)acrylamide] | 2.2 | 1.49 | 32.3 | 23.1 | 0.75 | 43.40 | 98.1
2 | C=CC(=O)Nc1cc(Nc2nccc(C(=O)c3ccc(OC)cc3OCCC)n2)c(OC)cc1N(C)CCN(C)C [EGFR_3365_102, N-(2-((2-(dimethylamino)ethyl)(methyl)amino)-4-methoxy-5-((4-(4-methoxy-2-propoxybenzoyl)pyrimidin-2-yl)amino)phenyl)acrylamide] | 27.5 | 1.62 | 206 | 21.9 | 11.2 | 18.40 | 82.7
3 | C=CC(=O)Nc1cc(Nc2nccc(C(=O)c3ccc(N4CCC(N)CC4)cc3)n2)c(OC)cc1N(C)CCN(C)C [EGFR_3365_121, N-(5-((4-(4-(4-aminopiperidin-1-yl)benzoyl)pyrimidin-2-yl)amino)-2-((2-(dimethylamino)ethyl)(methyl)amino)-4-methoxyphenyl)acrylamide] | 1.87 | 0.87 | 21.6 | 1.4 | 0.89 | 24.30 | 98.3
